In US8658652B2, “Antifolate combinations” (Chelsea Therapeutics, Inc., priority 2010, dated 2014):

How the values were obtained:
Format in all cases: in vivo
[1] = Body weight gain in 17 day rat developing type II collagen arthritis test; details: vs vehicle treated disease controls
Description: (§1) Female Lewis rats (n=74) weighing 140-161 grams (mean approximate weight=148 g) on day 0 of the study were obtained from Charles River Laboratories, Inc., Wilmington, Mass. Animals were identified by a distinct number delineating group and animal number. After randomization, all cages were labeled with protocol number, group number, and animal number with appropriate color-coding.
Animals were anesthetized with Isoflurane and received subcutaneous/intradermal (SC/ID) injections with […] of Freund's Incomplete Adjuvant (Difco, Detroit, Mich.) containing 2 mg/ml bovine type II collagen (Elastin Products, Owensville, Mo.) at the base of the tail and two sites on the back on days 0 and 6. Dosing was initiated on day 0 of the study (prior to boosting procedures) and continued daily (QD at 24 hour intervals) through day 16. Animals were terminated on day 17. […]
Clinical data for ankle joint diameter were analyzed by determining the area under the curve (AUC). […] Means for each group were determined and % inhibition from arthritis controls was calculated by comparing values for treated and […] animals. Data were analyzed using a Student's t-test or Mann-Whitney U test (non-parametric). If applicable, data were analyzed again, across all groups, using a one-way analysis of variance (1-way ANOVA) or Kruskal-Wallis test (non-parametric), along with the appropriate multiple comparison post-test. […]

[2] = test system: developing type II collagen arthritis in rats; test: Ankle histopathology in 17 day rat developing type II collagen arthritis test; details: for Ankle histopathology, reduction of summed scores: vs vehicle treated disease controls
Description: as §1
(§2) Animals were anesthetized with Isoflurane and received subcutaneous/intradermal (SC/ID) injections with […] of Freund's Incomplete Adjuvant (Difco, Detroit, Mich.) containing 2 mg/ml bovine type II collagen (Elastin Products, Owensville, Mo.) at the base of the tail and two sites on the back on days 0 and 6. Dosing was initiated on day 0 of the study (prior to boosting procedures) and continued daily (QD at 24 hour intervals) through day 16. Animals were terminated on day 17. The experimental groups were as follows in Table 1, wherein “CH vehicle” means the vehicle used to deliver the compound CH-4051 without the inclusion of the active compound, and “MTX vehicle” means the vehicle used to deliver methotrexate without the inclusion of the active compound. The terms “QD” and “PO” have the standard meanings in the art—i.e., “once daily” and “by mouth”, respectively.
(§3) After final body weight measurement on day 17, animals were anesthetized for terminal serum collection (retained), and then euthanized for tissue collection. Hind paws were transected at the level of the medial and lateral malleolus, weighed, and were placed in formalin with knees for potential microscopy. Livers, spleen, and thymus were removed, trimmed, weighed, and discarded.
(§4) Preserved and decalcified (5% formic acid) ankle and knee joints were cut in half longitudinally (ankles) or in the frontal plane (knees), processed through graded alcohols and a clearing agent, infiltrated and embedded in paraffin, sectioned, and stained with Toluidine Blue (T. blue) by Bolder BioPATH, Inc. associated personnel (HistoTox Labs, Inc.). Tissues from all animals were examined microscopically by a board certified veterinary pathologist, and observations were entered into a computer-assisted data retrieval system.
(§5) Clinical data for ankle joint diameter were analyzed by determining the area under the curve (AUC). For calculation of AUC, the daily measurement of ankle joints (using a caliper) for each rat were entered into a spreadsheet, and the area between the treatment days after the onset of disease to the termination day was computed. Means for each group were determined and % inhibition from arthritis controls was calculated by comparing values for treated and […] animals. Data were analyzed using a Student's t-test or Mann-Whitney U test (non-parametric). If applicable, data were analyzed again, across all groups, using a one-way analysis of variance (1-way ANOVA) or Kruskal-Wallis test (non-parametric), along with the appropriate multiple comparison post-test. ANOVA was performed using Prism 5.0c software (GraphPad Software, Inc.). Significance for all tests was set at p<0.05. Percent inhibition was calculated using the following formula: […]. The results of the testing are described below in relation to the various, referenced figures. In all cases, n=4 for Normal Controls, and n=10 for the treatment group.

[3] = test system: developing type II collagen arthritis in rats; test: Ankle diameter (caliper) in 17 day rat developing type II collagen arthritis test; details: for Daily ankle diameter reduced toward normal, days of significance: vs vehicle controls; for Ankle diameter AUC reduction toward normal: vs vehicle treated disease controls
Description: as §1, §2
Rats were weighed on days 0, 3, 6, and 9-17 of the study, and caliper measurements of ankles were taken every day beginning on day 9 (or day 0 of arthritis). Ankle caliper measurements were made with Digitrix II micrometer (Fowler & NSK). Baseline measurements were taken using one ankle with values rounded to one-thousandth of an inch. Measurements were confirmed as clinically normal (0.260-0.264 inches) by comparison with historical values for rats based on a range of body weights. Baseline measurements were then applied to both ankles, and these values remained with the animal so long as the ankle was clinically normal with good definition of all the ankle bones and no evidence of inflammation.
Clinical data for ankle joint diameter were analyzed by determining the area under the curve (AUC). […] Means for each group were determined and % inhibition from arthritis controls was calculated by comparing values for treated and […] animals. Data were analyzed using a Student's t-test or Mann-Whitney U test (non-parametric). If applicable, data were analyzed again, across all groups, using a one-way analysis of variance (1-way ANOVA) or Kruskal-Wallis test (non-parametric), along with the appropriate multiple comparison post-test. […] Percent inhibition was calculated using the following formula: % Change=B/A×100, wherein A is the mean normal (mean disease control), and B is the mean treated (mean disease control). […]

[4] = test system: developing type II collagen arthritis in rats; test: Overall effect on developing arthritis parameters, rat type II collagen arthritis; details: for Effect on arthritis parameters: alone
Description: as §1, §2, §5

[5] = test system: developing type II collagen arthritis in rats; test: Knee histopathology in 17 day rat developing type II collagen arthritis test
Description: as §1, §2, §3, §4, §5

[6] = test system: developing type II collagen arthritis in rats; test: as above; details: 0.2 mg/kg MTX 2X/week PO (Group 6); vs vehicle controls
[7] = 5 mg/kg CH-4051 daily PO (Group 7)
[8] = 2.5 mg/kg CH-4051 alone (Group 4), FIG. 11
[9] = 5 mg/kg CH-4051 alone (Group 7), FIG. 14
[10] = 2.5 mg/kg CH-4051 alone (Group 4), FIG. 19
[11] = 0.2 mg/kg MTX 2X/week PO (Group 6)
[12] = 0.1 mg/kg methotrexate alone (Group 3), FIG. 10
[13] = 0.2 mg/kg methotrexate alone (Group 6), FIG. 13
[14] = 0.1 mg/kg methotrexate alone (Group 3), FIG. 18

C=C(C[C@H](NC(=O)c1ccc(CCc2ccc3nc(N)nc(N)c3c2)cc1)C(=O)O)C(=O)O [CH-4051, (S)-2-{4-[2-(2,4-diamino-quinazolin-6-yl)-ethyl]-benzoylamino}-4-methylene-pentanedioic acid]
Body weight gain increase toward normal [1, 7]: 84% | Ankle cartilage damage, photomicrograph of approximate mean summed score [2, 8]: mild | Ankle inflammation, photomicrograph of approximate mean summed score [2, 8]: marked | Ankle pannus, photomicrograph of approximate mean summed score [2, 8]: mild | Ankle cartilage damage, photomicrograph of approximate mean summed score [2, 9]: minimal | Ankle inflammation, photomicrograph of approximate mean summed score [2, 9]: mild | Ankle pannus, photomicrograph of approximate mean summed score [2, 9]: minimal | Ankle histopathology, reduction of summed scores [2, 7]: 75% | Daily ankle diameter reduced toward normal, days of significance [3, 7]: significant at days 10-17 | Ankle diameter AUC reduction toward normal [3, 7]: 81% | Effect on developing arthritis parameters ([4]; 2.5 mg/kg CH-4051 (daily doses)): only minimal, non-significant effects | Effect on arthritis parameters ([4]; 5 mg/kg CH-4051 per day): good inhibition of all arthritis parameters | Knee bone resorption, photomicrograph of highest summed score in group [5, 10]: bone resorption | Knee cartilage damage, photomicrograph of highest summed score in group [5, 10]: moderate | Knee inflammation, photomicrograph of highest summed score in group [5, 10]: severe | Knee pannus, photomicrograph of highest summed score in group [5, 10]: mild | Knee inflammation, photomicrograph of highest summed score in group ([5]; 5 mg/kg CH-4051 alone (Group 7), FIG. 22): mild | Knee histopathology, reduction of summed scores ([5]; 5 mg/kg CH-4051 daily PO (Group 7), vs vehicle treated disease controls): 92%

CN(Cc1cnc2nc(N)nc(N)c2n1)c1ccc(C(=O)N[C@@H](CCC(=O)O)C(=O)O)cc1 [MTX, methotrexate]
Body weight gain increase toward normal [1, 11]: 68% | Ankle histopathology, reduction of summed scores ([2]; 0.1 mg/kg MTX—Group 6 (so in the source)): 59% | Ankle cartilage damage, photomicrograph of approximate mean summed score [2, 12]: mild | Ankle inflammation, photomicrograph of approximate mean summed score [2, 12]: marked | Ankle pannus, photomicrograph of approximate mean summed score [2, 12]: minimal | Ankle cartilage damage, photomicrograph of approximate mean summed score [2, 13]: minimal | Ankle inflammation, photomicrograph of approximate mean summed score [2, 13]: mild | Ankle pannus, photomicrograph of approximate mean summed score [2, 13]: minimal | Knee bone resorption score reduction [6]: 95% | Knee cartilage damage score reduction [6]: 91% | Knee pannus score reduction [6]: 91% | Daily ankle diameter reduced toward normal, days of significance ([3]; 0.1 mg/kg MTX 2X/week PO (Group 3)): significant at day 11 | Ankle diameter AUC reduction toward normal [3, 11]: 72% | Effect on developing arthritis parameters ([4]; 0.1 mg/kg MTX (dosed 2 times per week)): only minimal, non-significant effects | Effect on arthritis parameters ([4]; 0.2 mg/kg MTX twice weekly): good inhibition of all arthritis parameters | Knee bone resorption, photomicrograph of highest summed score in group [5, 14]: bone resorption | Knee cartilage damage, photomicrograph of highest summed score in group [5, 14]: mild | Knee inflammation, photomicrograph of highest summed score in group [5, 14]: severe | Knee pannus, photomicrograph of highest summed score in group [5, 14]: mild | Knee inflammation, photomicrograph of highest summed score in group ([5]; 0.2 mg/kg methotrexate alone (Group 6), FIG. 21): mild
